Measured values from patent US9855239B2, “Methods for the treatment and prevention of age-related retinal dysfunction” (University of Washington, priority 2008, dated 2018).
“Also recorded” adds a separate entry of the source. Blank lines part the entries; values can stand above or below the compound they belong to.

How the values were obtained:
C57BL/6 female mice [1] = assay: Single flash ERG analyses after long-term treatment; assay type: in vivo, mouse; conditions: 14 months of age, monthly gavage ~80 mg/kg (9-cis-R-Ac: N2 and N3), vs control C2; 80 mg/kg
Description: To evaluate the effects of rod- and cone-mediated light responses after long-term 9-cis-R-Ac treatments, mice were examined by non-invasive ERG methods. The first set of analyses was done at 4 and 10 months of age. Under scotopic conditions, the amplitudes of a-waves decreased with age, especially at high flash intensities (C1 versus C0 group, FIG. 4A, left top panel), whereas the changes in b-waves were less evident (FIG. 4A, right top panel).
The second set of analyses was done at 14 months of age.
(§1) Six groups of mice were studied (FIG. 1B).
(§2) Two weeks after the last gavage with either, 9-cis-R-Ac, all-trans-R-Ac or vehicle, groups of 48 hr dark-adapted mice were analyzed for recovery of dark adaptation after light exposure, purified rhodopsin/opsin and retinoids in the eye and retinal morphology (FIG. 1C; Methods). Mice were exposed to light of intensity 500 cd·m^−2 that bleached ˜90% of rhodopsin, anesthetized and monitored by ERG for one hr to evaluate recovery of dark adaptation. Rhodopsin was purified and rhodopsin/opsin ratios was determined. Retinoid analyses were performed on dissected eyes removed at 0, 10, 30, and 60 min after exposure to the same amount of light. Mice used to evaluate retinal morphology were not exposed to photobleaching prior to analysis.
(§3) ERGs of anesthetized mice were recorded as previously reported.

C57BL/6 female mice [2] = assay: Recovery of ERG response (dark adaptation) after bleach, long-term treatment; assay type: in vivo, mouse; conditions: 14 months of age, treated (9-cis-R-Ac: N2 and N3) vs C2; 500 cd·m^−2 for 3 min, 60 min dark adaptation
Experimental: Recovery of the ERG response (dark adaptation) following bleach was measured by monitoring the amplitude of a-waves after retinal exposure to intense constant illumination (500 cd·m^−2, ˜90% bleached rhodopsin) for 3 min. […] Retinoid kinetics in the eyes of each group were quantitatively evaluated during 60 min of dark adaptation after 3 min of bleaching at four subsequent time points of dark adaptation (0, 10, 30, and 60 min). […] Neither 9-cis-retinal nor 9-cis-retinyl esters were found in eyes from untreated groups (data not shown).
as §1, §2, §3

retina = assay: Retinal morphology (light and electron microscopy); assay type: in vivo, mouse; conditions: 10 and 14 months of age
Experimental: The thickness of each major layer in the retina was also similar between control and treated groups.
For light microscopy, mouse eyecups were fixed with 2.5% glutaraldehyde and 1.6% paraformaldehyde in 0.08 M 1,4-piperazinediethanesulfonate buffer (PIPES) (pH 7.4) containing 2% sucrose for ˜1 hr at room temperature followed by 23 hr at 4° C. Eyecups then were washed with 0.13 M sodium phosphate buffer (pH 7.3) and dehydrated through a CH3OH series and embedded in JB4 glycol metacrylate. Sections (6 μm) were stained by immersion in 5% Richardson's stain for 1.5-2 min at room temperature and destained in 0.13 M sodium phosphate (pH 7.3) until the retinal layers were visible by light microscopy (about 8-15 min). For transmission electron microscopy, mouse eyecups were analyzed as described previously (Maeda, A., et al. J Blot Chem 280, 18822-18832 (2005); Maeda, T., Lem, J., Palczewski, K. & Haeseleer, F. Investigative ophthalmology & visual science 46, 4320-4327 (2005)).

[3] = tested on: Lrat−/− and Rpe65−/− knockout mice; conditions: cited from earlier work

recovery of ERG a-wave response (dark adaptation) after bleach (C57BL/6 female mice [2]): no significant difference | retinal abnormalities by light microscopy (retina): no major abnormalities
Structure (SMILES): CC(=O)OC/C=C(C)/C=C/C=C(C)/C=C/C1=C(C)CCCC1(C)C [all-trans-R-Ac, reference compound]
a- and b-wave amplitudes, scotopic and photopic single flash ERG (C57BL/6 female mice [1]): no significant difference; also recorded: no effect

Structure (SMILES): CC1=C(/C=C/C(C)=C\C=C\C(C)=C\C=O)C(C)(C)CCC1 [9-cis-retinal]
retinal morphology and rod function (single cell recordings, ERG) ([3]; mouse, in vivo, po): preserved retinal morphology and recovery of normal rod function

Structure (SMILES): CC1=C(/C=C/C(C)=C/C=C/C(C)=C/C=O)C(C)(C)CCC1 [11-cis-retinal]
vision ([3]; intraperitoneal injection, Rpe65−/− mice): improves vision
